In general, Ki refers to a dissociation constant, usually derived from enzyme kinetics or from competition with a known ligand.

The target of assay [1] is human PDE2A1 (Homo sapiens (Human), UniProt O00408). In words: PDE2 IMAP FP inhibition assay, human PDE2A1 (selectivity panel format). The class given is biochemical. How it is done: Selectivity for PDE2, as compared to other PDE families, was assessed using the IMAP® technology. Human PDE10A2 enzyme was prepared from cytosolic fractions of transiently transfected HEK cells.
A Labcyte POD 810 (Labcyte, Sunnyvale, Calif.) was used to dispense 200 nL from each well of the titration plate to make eleven copies of the assay plate for each titration, one copy for each PDE enzyme. A solution of each enzyme (dilution from aliquots, sufficient to produce 20% substrate conversion) and a separate solution of FAM-labeled cAMP or FAM-labeled cGMP from Molecular Devices (Sunnyvale, Calif., product # R7506 or cGMP#R7508), at a final concentration of 50 nM were made in the assay buffer (10 mM Tris HCl, pH 7.2, 10 mM MgCl2, 0.05% NaN3 0.01% Tween-20, and 1 mM DTT). Note that the substrate for PDE2 is 50 nM FAM cAMP containing 1000 nM of cGMP. The enzyme and the substrate were then added to the assay plates in two consecutive additions of 10 μL and then shaken to mix. The reaction was allowed to proceed at room temperature for 60 minutes. A binding solution was then made from the kit components, comprised of 80% Solution A, 20% Solution B and binding reagent at a volume of 1/600 the total binding solution. The enzymatic reaction was stopped by addition of 60 μL of the binding solution to each well of the assay plate. The plates were sealed and shaken for 10 seconds. The plates were incubated at room temperature for one hour, then the parallel and perpendicular fluorescence was measured using a Tecan Genios Pro plate reader (Tecan, Switzerland). […] The intrinsic PDE2 inhibitory activity of a compound which may be used in accordance with the present invention may be determined by these assays. […]

Assay [2] addresses Rhesus PDE2A3 (Macaca mulatta, UniProt B3VTJ2). In words: PDE2 fluorescence polarization (IMAP FP) inhibition assay, rhesus PDE2A3. It counts as biochemical, rhesus macaque. How it is done:
A Labcyte Echo 555 (Labcyte, Sunnyvale, Calif.) is used to dispense 200 nL from each well of the titration plate to the 384 well assay plate. Ten microliters of a solution of enzyme (1/2000 final dilution from aliquots; sufficient to produce 20% substrate conversion) was added to the assay plate. Next 10 uL of a separate solution of the substrate FAM-labeled cAMP (50 nM final concentration product # R^7506 from Molecular Devices) and the activator cGMP (1 uM final concentration), prepared in the assay buffer (10 mM Tris HCl, pH 7.2, 10 mM MgCl2, 0.05% NaN3 0.01% Tween-20, and 1 mM DTT) was added to the assay plate and shaken to mix. The reaction is allowed to proceed at room temperature for 60 minutes. A binding solution is then made from the kit components, comprised of 80% Solution A, 20% Solution B and binding reagent at a volume of 1/600 the total binding solution. The enzymatic reaction is stopped by addition of 60 μL of the binding solution to each well of the assay plates and the plates are sealed and shaken for 30 seconds. The plate was incubated at room temperature for at least one hour prior to determining the fluorescence polarization (FP). The parallel and perpendicular fluorescence of each well of the plate was measured using a Tecan Genios Pro plate reader (Tecan, Switzerland) or Perkin Elmer EnVision™ plate reader (Waltham, Mass.). Fluorescence polarization (mP) was calculated from the parallel (S) and perpendicular (P) fluorescence of each sample well and the analogous values for the median control well, containing only substrate (So and Po), using the following equation: Polarization (mP)=1000*(S/So−P/Po)/(S/So+P/Po).
Dose-inhibition profiles for each compound were characterized by fitting the mP data to a four-parameter equation given below.
An apparent (KM) for FAM-labeled cAMP of ˜10 uM was used.

Setting [3] is: Lab B, read-out: Human PDE2 Ki (nM) - Lab B.
The mark [4] stands for this setting: Lab A, read-out: Rhesus PDE2 Ki (nM) - Lab A.
Where [5] appears, read: Lab B, read-out: Rhesus PDE2 Ki (nM) - Lab B.
The mark [6] stands for this setting: Lab A, read-out: Human PDE2 Ki (nM) - Lab A.

Read-outs that look alike come from different tables or passages of the source.

human PDE2A1, sequence (O00408 other isoform, or with tags, fused parts or gaps): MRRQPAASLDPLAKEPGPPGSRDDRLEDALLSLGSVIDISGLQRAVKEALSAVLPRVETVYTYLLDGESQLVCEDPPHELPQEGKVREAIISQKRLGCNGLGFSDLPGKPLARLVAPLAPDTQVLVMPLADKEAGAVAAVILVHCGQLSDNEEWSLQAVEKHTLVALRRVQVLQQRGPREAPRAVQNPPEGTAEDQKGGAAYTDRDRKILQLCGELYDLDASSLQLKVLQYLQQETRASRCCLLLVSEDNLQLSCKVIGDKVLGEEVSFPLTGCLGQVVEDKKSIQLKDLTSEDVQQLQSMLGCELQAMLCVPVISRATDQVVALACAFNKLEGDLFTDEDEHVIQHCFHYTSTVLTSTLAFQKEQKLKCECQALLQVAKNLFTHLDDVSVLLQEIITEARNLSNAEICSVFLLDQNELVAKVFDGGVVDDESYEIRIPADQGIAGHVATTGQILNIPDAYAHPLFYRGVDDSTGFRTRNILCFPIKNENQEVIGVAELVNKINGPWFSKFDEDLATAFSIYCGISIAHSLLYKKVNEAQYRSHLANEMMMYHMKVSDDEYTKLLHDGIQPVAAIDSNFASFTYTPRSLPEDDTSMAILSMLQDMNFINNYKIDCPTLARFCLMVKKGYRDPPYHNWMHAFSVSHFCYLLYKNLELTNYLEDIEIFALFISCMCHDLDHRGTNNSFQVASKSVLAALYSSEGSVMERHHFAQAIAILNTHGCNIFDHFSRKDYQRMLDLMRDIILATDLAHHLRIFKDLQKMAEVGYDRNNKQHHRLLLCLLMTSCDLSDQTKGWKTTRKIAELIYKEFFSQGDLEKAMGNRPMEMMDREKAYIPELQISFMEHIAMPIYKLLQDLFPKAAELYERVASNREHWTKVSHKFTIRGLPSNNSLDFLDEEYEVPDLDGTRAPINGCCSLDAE
Rhesus PDE2A3, sequence (B3VTJ2 1-941): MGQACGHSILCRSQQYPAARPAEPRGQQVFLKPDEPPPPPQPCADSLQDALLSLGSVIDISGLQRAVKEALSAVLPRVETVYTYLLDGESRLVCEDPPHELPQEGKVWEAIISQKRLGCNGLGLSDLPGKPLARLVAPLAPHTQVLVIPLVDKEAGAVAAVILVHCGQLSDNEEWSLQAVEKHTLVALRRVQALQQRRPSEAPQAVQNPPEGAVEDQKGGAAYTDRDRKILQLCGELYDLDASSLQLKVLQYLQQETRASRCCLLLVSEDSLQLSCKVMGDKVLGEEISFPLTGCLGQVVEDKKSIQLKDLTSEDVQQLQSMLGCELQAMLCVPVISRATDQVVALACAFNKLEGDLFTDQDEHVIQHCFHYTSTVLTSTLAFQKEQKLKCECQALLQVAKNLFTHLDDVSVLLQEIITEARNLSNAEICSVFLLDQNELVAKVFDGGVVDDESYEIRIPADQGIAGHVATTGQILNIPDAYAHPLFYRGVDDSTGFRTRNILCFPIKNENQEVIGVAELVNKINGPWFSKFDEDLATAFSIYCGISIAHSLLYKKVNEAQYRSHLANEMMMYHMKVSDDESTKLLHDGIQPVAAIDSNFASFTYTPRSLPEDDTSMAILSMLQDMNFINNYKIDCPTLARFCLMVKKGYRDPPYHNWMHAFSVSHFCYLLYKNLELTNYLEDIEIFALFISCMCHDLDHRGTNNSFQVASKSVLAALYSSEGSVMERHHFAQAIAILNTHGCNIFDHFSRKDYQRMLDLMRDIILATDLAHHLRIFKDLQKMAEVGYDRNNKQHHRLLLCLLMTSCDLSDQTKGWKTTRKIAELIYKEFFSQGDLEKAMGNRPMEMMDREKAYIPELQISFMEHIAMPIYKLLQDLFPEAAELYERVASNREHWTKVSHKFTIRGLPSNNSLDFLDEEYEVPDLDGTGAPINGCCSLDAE

Take `CC(C)[C@@H](NC(=O)c1cc(=O)[nH]c(N(C)C)n1)c1ccc(OC(F)(F)F)c(Cl)c1` [Example 86, N-{(1R)-1-[3-chloro-4-(trifluoromethoxy)phenyl]-2-methylpropyl}-2-(dimethylamino)-6-oxo-1,6-dihydropyrimidine-4-carboxamide]: the Ki came to 1.7 nM in assay [1] (setting [3]), 0.54 nM in assay [2] (setting [4]) and 2.1 nM in assay [2] (setting [5]).

As to `COC(C)(C)CCOc1nc(C(=O)NC(C)c2ccc(C(F)(F)F)cc2)cc(=O)[nH]1` (stereo not drawn) [Example 186, 2-(3-methoxy-3-methylbutoxy)-6-oxo-N-{1-[4-(trifluoromethyl)phenyl]ethyl}-1,6-dihydro pyrimidine-4-carboxamide], the Ki in assay [2] (setting [4]) came out at 352 nM. Regarding `CCN(CC)c1nc(C(=O)N[C@H](C)c2ccc(C(F)(F)F)cc2)cc(=O)[nH]1` [Example 142, 2-(diethylamino)-6-oxo-N-{(1R)-1-[4-(trifluoromethyl)phenyl]ethyl}-1,6-dihydropyrimidine-4-carboxamide], the Ki in assay [1] (setting [6]) turned out to be 16 nM; in assay [2] (setting [4]), 23 nM.

In the case of `C[C@@H](NC(=O)c1cc(=O)[nH]c(N2CC(F)(F)C2)n1)c1ccc(C(F)(F)F)cc1` [Example 24, 2-(3,3-Difluoroazetidin-1-yl)-6-oxo-N-{(1R)-1-[4-(trifluoromethyl)phenyl]ethyl}-1,6-dihydropyrimidine-4-carboxamide], the figures for the Ki in assay [1] (setting [6]) and in assay [2] (setting [4]) were 40 nM and 79 nM, respectively. In the case of `CC(NC(=O)c1cc(=O)[nH]c(OC2CCN(C)C2)n1)c1ccc(C(F)(F)F)cc1` (stereo not drawn) [Example 181, 2-[(1-methylpyrrolidin-3-yl)oxy]-6-oxo-N-{1-[4-(trifluoromethyl)phenyl]ethyl}-1,6-dihydro pyrimidine-4-carboxamide], the Ki in assay [2] (setting [4]) is above 100000 nM. Consider `C[C@@H](NC(=O)c1cc(=O)[nH]c(N2CC[C@@H](F)C2)n1)c1ccc(C(F)(F)F)cc1` [Example 11, 2-((R)-3-fluoropyrrolidin-1-yl)-6-oxo-N—((R)-1-(4-(trifluoromethyl)phenyl)ethyl)-1,6-dihydropyrimidine-4-carboxamide], for which the results for the Ki in assay [1] (setting [6]) and in assay [2] (setting [4]) were 18 nM and 30 nM, respectively. `CSc1nc(C(=O)N[C@@H](C)c2ccc(C(F)(F)F)cc2)cc(=O)[nH]1` [Example 16, (S)-2-(methylthio)-6-oxo-N-(1-(4-(trifluoromethyl)phenyl)ethyl)-1,6-dihydropyrimidine-4-carboxamide]: the Ki in assay [2] (setting [4]) worked out at 13300 nM.

For the molecule `CC[C@@H](NC(=O)c1cc(=O)[nH]c(N2CCCC2)n1)c1ccc(SC(F)(F)F)c(F)c1` [Example 29, N-[(1R)-1-{3-fluoro-4-[(trifluoromethyl)sulfanyl]phenyl}propyl]-6-oxo-2-pyrrolidin-1-yl-1,6-dihydropyrimidine-4-carboxamide], the Ki came to 0.22 nM in assay [1] (setting [6]) and 0.56 nM in assay [2] (setting [4]). For `C[C@@H](NC(=O)c1cc(=O)[nH]c(N(C)C)n1)c1ccc(C(F)(F)F)c(F)c1F` [Example 84, N-{(1R)-1-[2,3-difluoro-4-(trifluoromethyl)phenyl]ethyl}-2-(dimethylamino)-6-oxo-1,6-dihydropyrimidine-4-carboxamide], the Ki in assay [1] (setting [3]) was found to be 2.5 nM; in assay [2] (setting [5]), 3.5 nM. As to `CNCCCOc1nc(C(=O)NC(C)c2ccc(C(F)(F)F)cc2)cc(=O)[nH]1` (stereo not drawn) [Example 180, 2-[3-(methylamino)propoxy]-6-oxo-N-{1-[4-(trifluoromethyl)phenyl]ethyl}-1,6-dihydro-pyrimidine-4-carboxamide], in assay [2] (setting [4]), the Ki worked out at 86000 nM. As to `CC(NC(=O)c1cc(=O)[nH]c(OC2CCOC2)n1)c1ccc(C(F)(F)F)cc1` (stereo not drawn) [Example 193, 6-oxo-2-(tetrahydrofuran-3-yloxy)-N-{1-[4-(trifluoromethyl)phenyl]ethyl}-1,6-dihydropyrimidine-4-carboxamide], the Ki in assay [2] (setting [4]) worked out at 1060 nM. On the same count and under the same terms, the value for `CC(NC(=O)c1cc(=O)[nH]c(OCC2(C)COC2)n1)c1ccc(C(F)(F)F)cc1` (stereo not drawn) [Example 188, 2-[(3-methyloxetan-3-yl)methoxy]-6-oxo-N-{1-[4-(trifluoromethyl)phenyl]ethyl}-1,6-dihydropyrimidine-4-carboxamide] was 12600 nM. Take `C[C@@H](NC(=O)c1cc(=O)[nH]c(-n2cccn2)n1)c1ccc(C(F)(F)F)cc1` [Example 9, (R)-6-oxo-2-(1H-pyrazol-1-yl)-N-(1-(4-(trifluoromethyl)phenyl)ethyl)-1,6-dihydropyrimidine-4-carboxamide]: the inhibition at 1 µM in assay [2] (@ 1 μM, Lab A, read-out: Rhesus PDE2 % inhibition at a given concentration - Lab A) was determined as 26%. `CC(NC(=O)c1cc(=O)[nH]c(OC2CCCNC2)n1)c1ccc(C(F)(F)F)cc1` (stereo not drawn) [Example 191, 6-oxo-2-(piperidin-3-yloxy)-N-{1-[4-(trifluoromethyl)phenyl]ethyl}-1,6-dihydropyrimidine-4-carboxamide]: the Ki in assay [2] (setting [4]) is above 100000 nM.

Consider `CC(NC(=O)c1cc(=O)[nH]c(OC2CCCN(C)C2)n1)c1ccc(C(F)(F)F)cc1` (stereo not drawn) [Example 182, 2-[(1-methylpiperidin-3-yl)oxy]-6-oxo-N-{1-[4-(trifluoromethyl)phenyl]ethyl}-1,6-dihydro pyrimidine-4-carboxamide], for which the Ki in assay [2] (setting [4]) was found to be 55000 nM. Still for that read-out and setting: the value for `C[C@@H](NC(=O)c1cc(=O)[nH]c(Oc2ccccc2)n1)c1ccc(C(F)(F)F)cc1` [Example 19, (R)-6-oxo-2-phenoxy-N-(1-(4-(trifluoromethyl)phenyl)ethyl)-1,6-dihydropyrimidine-4-carboxamide] was 2930 nM. Same read-out and setting: the value for `CC(NC(=O)c1cc(=O)[nH]c(OC2CCNCC2)n1)c1ccc(C(F)(F)F)cc1` (stereo not drawn) [Example 187, 6-oxo-2-(piperidin-4-yloxy)-N-{1-[4-(trifluoromethyl)phenyl]ethyl}-1,6-dihydropyrimidine-4-carboxamide] was above 100000 nM. Still for that read-out and setting: the value for `CC(NC(=O)c1cc(=O)[nH]c(OC2CCN(C)CC2)n1)c1ccc(C(F)(F)F)cc1` (stereo not drawn) [Example 190, 2-[(1-methylpiperidin-4-yl)oxy]-6-oxo-N-{1-[4-(trifluoromethyl)phenyl]ethyl}-1,6-dihydro-pyrimidine-4-carboxamide] was above 100000 nM; that for `CC(NC(=O)c1cc(=O)[nH]c(OC2COC2)n1)c1ccc(C(F)(F)F)cc1` (stereo not drawn) [Example 192, 2-(oxetan-3-yloxy)-6-oxo-N-{1-[4-(trifluoromethyl)phenyl]ethyl}-1,6-dihydropyrimidine-4-carboxamide] was 11500 nM. Turning to `CC(C)C(C)(NC(=O)c1cc(=O)[nH]c(N(C)C)n1)c1ccc(S(F)(F)(F)(F)F)cc1` (single isomer, unassigned) [Example 172, (R)- or (S)-2-dimethylamino)-N-{1,2-dimethyl-1-[4-(pentafluoro-λ^6-sulfanyl)phenyl]propyl}-6-oxo-1,6-dihydropyrimidine-4-carboxamide], the Ki in assay [2] (Rhesus PDE2 Ki (nM) - Lab B, Lab B) came out at 154 nM. For the molecule `CNCCOc1nc(C(=O)NC(C)c2ccc(C(F)(F)F)cc2)cc(=O)[nH]1` (stereo not drawn) [Example 189, 2-[2-(methylamino)ethoxy]-6-oxo-N-{1-[4-(trifluoromethyl)phenyl]ethyl}-1,6-dihydropyrimidine-4-carboxamide], in assay [2] (setting [4]), the Ki worked out at 9310 nM. With `CC(NC(=O)c1cc(=O)[nH]c(OC2CCNC2)n1)c1ccc(C(F)(F)F)cc1` (stereo not drawn) [Example 185, 6-oxo-2-(pyrrolidin-3-yloxy)-N-{1-[4-(trifluoromethyl)phenyl]ethyl}-1,6-dihydropyrimidine-4-carboxamide], the Ki in assay [2] (setting [4]) is above 100000 nM. For `CC(NC(=O)c1cc(=O)[nH]c(OCCN(C)C)n1)c1ccc(C(F)(F)F)cc1` (stereo not drawn) [Example 184, 2-[2-(dimethylamino)ethoxy]-6-oxo-N-{1-[4-(trifluoromethyl)phenyl]ethyl}-1,6-dihydro-pyrimidine-4-carboxamide], in assay [2] (setting [4]), the inhibition constant Ki stood at 72000 nM.

The values above are taken from US10285989B2, “Pyrimidinone amide compounds as PDE2 inhibitors” (Merck Sharp & Dohme Corp., priority 2015, dated 2019).
